Results on five compounds are retold here after US11407711B2, “Benzamide compound and use thereof” (METISA BIOTECHNOLOGY CO., LTD., priority 2018, dated 2022).

The structures appear in SMILES notation. Where two headings read alike, the source gives them in different places.

Holding throughout (format): in vivo
The test system of one test is Plutella xylostella. Description: Insecticidal activity against Plutella xylostella (Airbrush spray on cabbage leaf discs). The method, then: (§1) The compound to be tested was dissolved by a mixed solvent of acetone/methanol (1:1), and then diluted by water containing 0.1% (wt) Tween 80 to the required concentration.
(§2) An Airbrush spray method was adopted for the determination of the activity, with armyworm, Plutella xylostella and Chilo suppressalis as targets.
Determination method: cabbage blades were punched into 2 cm (diameter) leaf discs by a puncher; with the pressure of Airbrush spray being 10 psi (about 0.7 kg/cm^2), both sides of each leaf disc were sprayed with the amount of 0.5 ml. After dried in the shade, each leaf disc was inoculated with 10 3rd-instar larvaes, 3 repeats for each leaf disc. And then, the treated leaf discs were put into an observation room (25° C., relative humidity: 60-70%) for cultivation; the number of the survivals was surveyed 1 d, 2 d and 3 d after administration, and then the death rate was calculated.

The subject of a further test is Chilo suppressalis. Description: Insecticidal activity against Chilo suppressalis (spray on rice seedlings, stems fed to larvae). As to the method:
as §1, §2
Determination method: 1) preparation of rice seedlings: rice was cultivated in small plastic cups (diameter: 4.5 cm and height: 4 cm) at a constant temperature room (temperature: 26-28° C., relative humidity: 60-80% around and illumination: 16 hL:8 hD), after the rice grew to a 4-5 leaf stage, vigorous and uniform-growth rice seedlings were selected and treated with an insecticide, 3 repeats for each treatment. 2) Preparation of pests for test: 3rd-instar larvaes of Chilo suppressalis fed continuously in the room. 3) Inoculation of pests on rice stems by spray. The whole plants of the rice seedlings were sprayed by a spray method uniformly, with the dose of 15 ml for each treatment. The blank control was treated first, and the above operation was repeated in an order of lower to higher test concentration. After sprayed, rice seedlings were placed in the shade to dry the insecticide liquor, and then stalks about 5 cm above the basal part of the stems were cut to be fed to the pests for test. Glass petri dishes (diameter: […]) were prepared, cushioned by filter paper at the bottom thereof, and subjected to water addition for moisturizing; about 20 pieces of rice stems were put in each dish and inoculated with 10 larvaes; then the petri dishes were closed by non-woven fabrics and placed in a constant temperature room for culture. The number of survivals was surveyed 3 d after administration.

In a further test the test system is armyworm. Put plainly: Insecticidal activity against armyworm (Airbrush spray on maize blade segments). The conditions noted are these: 72 h, read-out: fatality rate against armyworm. As to the method:
as §1, §2
Determination method: maize blades were cut into 2 cm (length) segments; with the pressure of Airbrush spray being 10 psi (about 0.7 kg/cm^2), both sides of each blade segment were sprayed with the amount of 0.5 ml. After dried in the shade, each segment was inoculated with 10 3rd-instar larvaes, 3 repeats for each segment. And then, the treated segments were put into an observation room (25° C., relative humidity: 60-70%) for cultivation; the number of the survivals was surveyed 1 d, 2 d and 3 d after administration, and then the death rate was calculated.

Where [1] appears, read: Plutella xylostella, foliar, 72 h, 1 mg/L, 3 d after administration, read-out: fatality rate against Plutella xylostella.
[2] abbreviates: Plutella xylostella, foliar, 72 h, Table 71, 10 mg/L, 3 d after administration, read-out: Fatality rate (%, 3 d after administration) 10 mg/L.
[3] abbreviates: Chilo suppressalis, 72 h, 4 mg/L, survivals surveyed 3 d after administration, read-out: fatality rate against Chilo suppressalis.
Setting [4] is: Chilo suppressalis, 72 h, 40 mg/L, survivals surveyed 3 d after administration, read-out: fatality rate against Chilo suppressalis.
[5] abbreviates: 0.1 mg/L, 3 d after administration, 3rd-instar larvae.
[6] abbreviates: 0.5 mg/L, 3 d after administration, 3rd-instar larvae.
Where [7] appears, read: Plutella xylostella, foliar, 72 h, read-out: Fatality rate (%, 3 d after administration) 0.5 mg/L, Table 73, 0.5 mg/L, 3 d after administration.
Where [8] appears, read: Plutella xylostella, foliar, 72 h, read-out: Fatality rate (%, 3 d after administration) 1 mg/L, Table 73, 1 mg/L, 3 d after administration.
[9] abbreviates: Plutella xylostella, foliar, 72 h, read-out: Fatality rate (%, 3 d after administration) 10 mg/L, Table 71, 10 mg/L, 3 d after administration.
The mark [10] stands for this setting: Plutella xylostella, foliar, 72 h, read-out: fatality rate against Plutella xylostella, 0.5 mg/L, 3 d after administration.
Setting [11] is: Plutella xylostella, foliar, 72 h, read-out: fatality rate against Plutella xylostella, 1 mg/L, 3 d after administration.
[12] abbreviates: Chilo suppressalis, 72 h, read-out: fatality rate against Chilo suppressalis.

Consider `N#CCN(C(=O)c1cccc(NC(=O)c2ccccc2)c1F)c1c(Cl)cc(C(F)(C(F)(F)F)C(F)(F)F)cc1Cl` [Compound 17.321], for which the pest or weed control at 1 µg/mL in the test with Plutella xylostella (setting [1]) is at least 90%. Also, the pest or weed control at 10 µg/mL in the test with Plutella xylostella (setting [2]) is 100%. The pest or weed control at 4 µg/mL with Chilo suppressalis (setting [3]) is at least 90%. The pest or weed control at 40 µg/mL in the test with Chilo suppressalis (setting [4]) is at least 90%. Moreover, in the test with armyworm (setting [5]), the pest or weed control at 0.1 µg/mL was at least 90%. The pest or weed control at 0.5 µg/mL with armyworm (setting [6]) was at least 90%.

As to `Cc1cc(C(F)(C(F)(F)F)C(F)(F)F)cc(Br)c1N(CC#N)C(=O)c1cccc(NC(=O)c2ccccc2)c1F` [Compound 20.321], the pest or weed control at 1 µg/mL in the test with Plutella xylostella (setting [1]) was at least 90%; with Plutella xylostella (Plutella xylostella, foliar, 72 h, Table 72, 1 mg/L, 3 d after administration, read-out: Fatality rate (%, 3 d after administration) 1 mg/L), 93.9%. The pest or weed control at 10 µg/mL in the test on Plutella xylostella (setting [2]) worked out at 100%. Moreover, the “Fatality rate (%, 3 d after administration) 5 mg/L” value with Plutella xylostella (Table 72, 5 mg/L, 3 d after administration) stood at 100%. The pest or weed control at 40 µg/mL with Chilo suppressalis (setting [4]) is at least 90%. In addition, the pest or weed control at 0.5 µg/mL in the test with armyworm (setting [6]) was at least 90%.

As to `N#CCN(C(=O)c1cccc(NC(=O)c2ccccc2)c1F)c1c(Cl)cc(C(F)(C(F)(F)F)C(F)(F)F)cc1Br` [Compound 21.321], the pest or weed control at 1 µg/mL in the test with Plutella xylostella (setting [1]) is at least 90%. The pest or weed control at 10 µg/mL with Plutella xylostella (setting [2]) came out at 100%. For the same compound, the pest or weed control at 4 µg/mL in the test with Chilo suppressalis (setting [3]) was at least 90%. In the test on Chilo suppressalis (setting [4]), the pest or weed control at 40 µg/mL is at least 90%. Also, the pest or weed control at 0.1 µg/mL with armyworm (setting [5]) was at least 90%. Further, the pest or weed control at 0.5 µg/mL in the test with armyworm (setting [6]) is at least 90%.

Turning to `CN(C(=O)c1ccccc1)c1cccc(C(=O)N(CC#N)c2c(Br)cc(C(F)(C(F)(F)F)C(F)(F)F)cc2Br)c1F` [Compound 30.321], the pest or weed control at 0.5 µg/mL in the test on Plutella xylostella (setting [7]) is 100%; with Plutella xylostella (Plutella xylostella, foliar, 72 h, read-out: Fatality rate (%, 3 d after administration) 0.5 mg/L, Table 74, 0.5 mg/L, 3 d after administration), 100%; with Plutella xylostella (setting [10]), at least 90%; with armyworm, at least 90%. The pest or weed control at 1 µg/mL in the test with Plutella xylostella (setting [8]) is 100%; in the test on Plutella xylostella (setting [11]) it was at least 90%; in the test with Chilo suppressalis (setting [12]) it was at least 90%. The pest or weed control at 10 µg/mL in the test on Plutella xylostella (setting [9]) is 100%. Also, the pest or weed control at 0.05 µg/mL is at least 90% with Plutella xylostella (Plutella xylostella, foliar, 72 h, read-out: fatality rate against Plutella xylostella, 0.05 mg/L, 3 d after administration) and at least 90% in the test on armyworm. For the same compound, the “Fatality rate (%, 3 d after administration) 0.05 mg/L” value in the test on Plutella xylostella (Table 74, 0.05 mg/L, 3 d after administration) is recorded as 100%. For the same compound, in the test on Plutella xylostella (Table 75, fast-acting efficacy, dose 0.5 mg/L, 1 d after administration), the “Fatality rate (%) 1 d after administration” value was 90%. In the test on Plutella xylostella (Table 75, fast-acting efficacy, dose 0.5 mg/L, 2 d after administration), the “Fatality rate (%) 2 d after administration” value is recorded as 100%. Also, in the test with Plutella xylostella (Table 75, fast-acting efficacy, dose 0.5 mg/L, 3 d after administration), the “Fatality rate (%) 3 d after administration” value is on record as 100%. Besides, the pest or weed control at 4 µg/mL in the test on Chilo suppressalis (setting [12]) was at least 90%. Besides, in the test on Chilo suppressalis (setting [12]), the pest or weed control at 40 µg/mL was at least 90%. The “Fatality rate (%, 3 d after administration) 1.25 mg/L” value in the test with Chilo suppressalis (Table 77, 1.25 mg/L, 3 d after administration) is 93.5%. In addition, the “Fatality rate (%, 3 d after administration) 2.5 mg/L” value in the test on Chilo suppressalis (Table 77, 2.5 mg/L, 3 d after administration) was 100%. The “Fatality rate (%, 3 d after administration) 5 mg/L” value with Chilo suppressalis (Table 77, 5 mg/L, 3 d after administration) was determined as 100%. In addition, the pest or weed control at 0.1 µg/mL in the test on armyworm was at least 90%.

Turning to `N#CCN(C(=O)c1ccccc1)c1cccc(C(=O)N(CC#N)c2c(Br)cc(C(F)(C(F)(F)F)C(F)(F)F)cc2Br)c1F` [Compound 58.321], the pest or weed control at 0.5 µg/mL with Plutella xylostella (setting [7]) was 98%; in the test with Plutella xylostella (setting [10]), at least 90%; in the test on armyworm, at least 90%. Moreover, the values for the pest or weed control at 1 µg/mL in the test with Plutella xylostella (setting [8]) and in the test on Plutella xylostella (setting [11]) were 100% and at least 90%, respectively. In addition, the pest or weed control at 10 µg/mL in the test with Plutella xylostella (setting [9]) is 100%. Further, the pest or weed control at 4 µg/mL in the test with Chilo suppressalis (setting [12]) was at least 90%. The pest or weed control at 40 µg/mL with Chilo suppressalis (setting [12]) was at least 90%. The pest or weed control at 0.1 µg/mL in the test with armyworm was at least 90%.
